Several values for one entry are separate records, joined by “and”; a condition that tells them apart may be missing. Equal entries are not always repeated.
Experiment: molar heat capacity at constant pressure; xn = mol fraction of the nth substance listed
Conditions: 100 kPa

[Si] [silicon] + [Li]
Conditions	molar heat capacity at constant pressure
127.62 K, Crystal of intercomponent compound 2, relaxation calorimeter, x2 = 0.804	12.78 J/K/mol
127.64 K, Crystal of intercomponent compound 2, relaxation calorimeter, x2 = 0.804	12.84 J/K/mol
130 K, Crystal of intercomponent compound 1, relaxation calorimetry + DSC, x2 = 0.81	12.64 J/K/mol
130 K, Crystal of intercomponent compound 2, relaxation calorimetry + DSC, x2 = 0.804	13.04 J/K/mol
131.69 K, Crystal of intercomponent compound 1, relaxation calorimetry, x2 = 0.81	12.88 J/K/mol
131.69 K, Crystal of intercomponent compound 2, relaxation calorimeter, x2 = 0.804	13.22 J/K/mol
131.71 K, Crystal of intercomponent compound 2, relaxation calorimeter, x2 = 0.804	13.3 J/K/mol
135.76 K, Crystal of intercomponent compound 1, relaxation calorimetry, x2 = 0.81	13.31 J/K/mol
135.76 K, Crystal of intercomponent compound 2, relaxation calorimeter, x2 = 0.804	13.64 J/K/mol
135.78 K, Crystal of intercomponent compound 2, relaxation calorimeter, x2 = 0.804	13.71 J/K/mol
139.83 K, Crystal of intercomponent compound 1, relaxation calorimetry, x2 = 0.81	13.71 J/K/mol
139.83 K, Crystal of intercomponent compound 2, relaxation calorimeter, x2 = 0.804	14.04 J/K/mol
139.85 K, Crystal of intercomponent compound 2, relaxation calorimeter, x2 = 0.804	14.09 J/K/mol
140 K, Crystal of intercomponent compound 1, relaxation calorimetry + DSC, x2 = 0.81	13.65 J/K/mol
140 K, Crystal of intercomponent compound 2, relaxation calorimetry + DSC, x2 = 0.804	14.07 J/K/mol
143.86 K, Crystal of intercomponent compound 1, relaxation calorimetry, x2 = 0.81	14.08 J/K/mol
143.87 K, Crystal of intercomponent compound 2, relaxation calorimeter, x2 = 0.804	14.45 J/K/mol
143.88 K, Crystal of intercomponent compound 2, relaxation calorimeter, x2 = 0.804	14.5 J/K/mol
147.97 K, Crystal of intercomponent compound 1, relaxation calorimetry, x2 = 0.81	14.51 J/K/mol
147.98 K, Crystal of intercomponent compound 2, relaxation calorimeter, x2 = 0.804	14.83 J/K/mol
147.99 K, Crystal of intercomponent compound 2, relaxation calorimeter, x2 = 0.804	14.94 J/K/mol
150 K, Crystal of intercomponent compound 1, relaxation calorimetry + DSC, x2 = 0.81	14.58 J/K/mol
150 K, Crystal of intercomponent compound 2, relaxation calorimetry + DSC, x2 = 0.804	15.01 J/K/mol
152 K, Crystal of intercomponent compound 1, relaxation calorimetry, x2 = 0.81	14.84 J/K/mol
152 K, Crystal of intercomponent compound 2, relaxation calorimeter, x2 = 0.804	15.17 J/K/mol
152.02 K, Crystal of intercomponent compound 2, relaxation calorimeter, x2 = 0.804	15.29 J/K/mol
156.1 K, Crystal of intercomponent compound 1, relaxation calorimetry, x2 = 0.81	15.17 J/K/mol
156.1 K, Crystal of intercomponent compound 2, relaxation calorimeter, x2 = 0.804	15.54 J/K/mol
156.12 K, Crystal of intercomponent compound 2, relaxation calorimeter, x2 = 0.804	15.62 J/K/mol
160 K, Crystal of intercomponent compound 1, relaxation calorimetry + DSC, x2 = 0.81	15.43 J/K/mol
160 K, Crystal of intercomponent compound 2, relaxation calorimetry + DSC, x2 = 0.804	15.88 J/K/mol
160.12 K, Crystal of intercomponent compound 1, relaxation calorimetry, x2 = 0.81	15.52 J/K/mol
160.13 K, Crystal of intercomponent compound 2, relaxation calorimeter, x2 = 0.804	15.86 J/K/mol
160.14 K, Crystal of intercomponent compound 2, relaxation calorimeter, x2 = 0.804	15.96 J/K/mol
164.23 K, Crystal of intercomponent compound 1, relaxation calorimetry, x2 = 0.81	15.85 J/K/mol
164.23 K, Crystal of intercomponent compound 2, relaxation calorimeter, x2 = 0.804	16.22 J/K/mol
164.24 K, Crystal of intercomponent compound 2, relaxation calorimeter, x2 = 0.804	16.27 J/K/mol
168.29 K, Crystal of intercomponent compound 1, relaxation calorimetry, x2 = 0.81	16.17 J/K/mol
168.29 K, Crystal of intercomponent compound 2, relaxation calorimeter, x2 = 0.804	16.53 J/K/mol
168.31 K, Crystal of intercomponent compound 2, relaxation calorimeter, x2 = 0.804	16.6 J/K/mol
170 K, Crystal of intercomponent compound 1, relaxation calorimetry + DSC, x2 = 0.81	16.22 J/K/mol
170 K, Crystal of intercomponent compound 2, relaxation calorimetry + DSC, x2 = 0.804	16.67 J/K/mol
172.36 K, Crystal of intercomponent compound 1, relaxation calorimetry, x2 = 0.81	16.41 J/K/mol
172.36 K, Crystal of intercomponent compound 2, relaxation calorimeter, x2 = 0.804	16.79 J/K/mol
172.38 K, Crystal of intercomponent compound 2, relaxation calorimeter, x2 = 0.804	16.9 J/K/mol
176.43 K, Crystal of intercomponent compound 1, relaxation calorimetry, x2 = 0.81	16.71 J/K/mol
176.43 K, Crystal of intercomponent compound 2, relaxation calorimeter, x2 = 0.804	17.06 J/K/mol and 17.19 J/K/mol
180 K, Crystal of intercomponent compound 1, relaxation calorimetry + DSC, x2 = 0.81	16.94 J/K/mol
180 K, Crystal of intercomponent compound 2, relaxation calorimetry + DSC, x2 = 0.804	17.39 J/K/mol
180.45 K, Crystal of intercomponent compound 1, relaxation calorimetry, x2 = 0.81	16.95 J/K/mol
180.45 K, Crystal of intercomponent compound 2, relaxation calorimeter, x2 = 0.804	17.33 J/K/mol
180.46 K, Crystal of intercomponent compound 2, relaxation calorimeter, x2 = 0.804	17.44 J/K/mol
184.56 K, Crystal of intercomponent compound 2, relaxation calorimeter, x2 = 0.804	17.58 J/K/mol
184.57 K, Crystal of intercomponent compound 1, relaxation calorimetry, x2 = 0.81	17.2 J/K/mol
184.57 K, Crystal of intercomponent compound 2, relaxation calorimeter, x2 = 0.804	17.69 J/K/mol
188.58 K, Crystal of intercomponent compound 2, relaxation calorimeter, x2 = 0.804	17.84 J/K/mol
188.59 K, Crystal of intercomponent compound 1, relaxation calorimetry, x2 = 0.81	17.45 J/K/mol
188.59 K, Crystal of intercomponent compound 2, relaxation calorimeter, x2 = 0.804	17.97 J/K/mol
190 K, Crystal of intercomponent compound 1, relaxation calorimetry + DSC, x2 = 0.81	17.6 J/K/mol
190 K, Crystal of intercomponent compound 2, relaxation calorimetry + DSC, x2 = 0.804	18.05 J/K/mol
192.69 K, Crystal of intercomponent compound 1, relaxation calorimetry, x2 = 0.81	17.73 J/K/mol
192.69 K, Crystal of intercomponent compound 2, relaxation calorimeter, x2 = 0.804	18.09 J/K/mol
192.71 K, Crystal of intercomponent compound 2, relaxation calorimeter, x2 = 0.804	18.27 J/K/mol
196.74 K, Crystal of intercomponent compound 2, relaxation calorimeter, x2 = 0.804	18.32 J/K/mol
196.78 K, Crystal of intercomponent compound 1, relaxation calorimetry, x2 = 0.81	17.96 J/K/mol
196.78 K, Crystal of intercomponent compound 2, relaxation calorimeter, x2 = 0.804	18.47 J/K/mol
200 K, Crystal of intercomponent compound 1, relaxation calorimetry + DSC, x2 = 0.81	18.2 J/K/mol
200 K, Crystal of intercomponent compound 2, relaxation calorimetry + DSC, x2 = 0.804	18.65 J/K/mol
200.77 K, Crystal of intercomponent compound 2, relaxation calorimeter, x2 = 0.804	18.54 J/K/mol
200.8 K, Crystal of intercomponent compound 1, relaxation calorimetry, x2 = 0.81	18.22 J/K/mol
200.8 K, Crystal of intercomponent compound 2, relaxation calorimeter, x2 = 0.804	18.74 J/K/mol
204.91 K, Crystal of intercomponent compound 2, relaxation calorimeter, x2 = 0.804	18.8 J/K/mol
204.92 K, Crystal of intercomponent compound 1, relaxation calorimetry, x2 = 0.81	18.43 J/K/mol
204.93 K, Crystal of intercomponent compound 2, relaxation calorimeter, x2 = 0.804	18.97 J/K/mol
208.92 K, Crystal of intercomponent compound 2, relaxation calorimeter, x2 = 0.804	19.05 J/K/mol
208.93 K, Crystal of intercomponent compound 1, relaxation calorimetry, x2 = 0.81	18.63 J/K/mol
208.94 K, Crystal of intercomponent compound 2, relaxation calorimeter, x2 = 0.804	19.19 J/K/mol
210 K, Crystal of intercomponent compound 1, relaxation calorimetry + DSC, x2 = 0.81	18.76 J/K/mol
210 K, Crystal of intercomponent compound 2, relaxation calorimetry + DSC, x2 = 0.804	19.19 J/K/mol
213.04 K, Crystal of intercomponent compound 2, relaxation calorimeter, x2 = 0.804	19.24 J/K/mol
213.05 K, Crystal of intercomponent compound 1, relaxation calorimetry, x2 = 0.81	18.87 J/K/mol

Reference: the NIST ThermoML archive (doi:10.1016/j.jct.2015.01.004)
